Assay [1] deals with T1, rat somatostatin receptor subtype 2 (SSTR2) (Rattus norvegicus, UniProt P30680).
T1 construct: expressed in transfected cells; host or cells: Saccharomyces cerevisiae LY364 bearing pJH2 (SSTR2) and pLP82 (G protein)
As to the kind of experiment: Yeast assay, somatostatin agonist activity (zone of growth of modified yeast cells). The assay is classed as cell-based. On the set-up: key: 1 is minimum agonist activity; 5 is maximum agonist activity; --: When no activity is observed, the result is indicated by a dash. To be noted: rating on a scale of 1-5 from zone of growth; S. cerevisiae LY364 expressing rat SSTR2. The protocol: (§1) In this evaluation, yeast cells which have been specifically modified to functionally express rat somatostatin receptor subtype 2 (SSTR2) on their cell surfaces are used. S. Cerevisiae LY364 cells are plated in a standard synthetic agar medium which lacks histidine. In the absence of a somatostatin receptor agonist, the auxotrophic (his3) cells are unable to grow. In the presence of somatostatin, or a somatostatin agonist, the expression of an enzyme (His3p: imidazole-glycerol phosphate dehydratase) which is essential for histidine biosynthesis is induced. The cells become competent to produce histidine, resulting in a zone of growing cells around the applied test compound. The zone is measured and the test compound is given an agonist rating on a scale of 1-5 wherein 1 is minimum agonist activity and 5 is maximum agonist activity.
1) Inoculate 2 mL SCD-ura-trp liquid medium in Falcon 2051 tube with a single colony taken from a plate containing LY364 (MATa ura3-52 leu2 his3 trp1 lys2 ade2 far1:: LYS2 fus1:: FUS1-HIS3 gpa1::hisG sst2::.ADE2 bearing the SSTR2 expression plasmid, pJH2, and the G protein expression plasmid, pLP82) cells.
3) Add 1 mL of LY364 culture to 1 liter of agar medium.
8) Incubate plates at 30° C.
Day 5. Begin checking plates for growth around applied compounds.
(§2) Day 7. Growth in response to somatostatin should be readily observable. Rate extent of growth or inhibition of growth according to rating scale described hereinabove.

Assay [2] concerns the target T1, rat somatostatin receptor subtype 2 (SSTR2). As to the kind of experiment: Yeast assay, somatostatin antagonist activity (zone of no growth in presence of S-14). The assay is classed as cell-based. To be noted: rating on a scale of 1-5 from zone of no growth; 5 μL of 1 mg/mL S-14 added to each plate. On the set-up: key: 1 is minimum antagonist activity; 5 is maximum antagonist activity; --: When no activity is observed, the result is indicated by a dash. The protocol:
as §1
To evaluate the somatostatin antagonist activity of a test compound, the above procedure is followed except on day 3, 5 μL of 1 mg/mL of somatostatin, S-14, is added to each plate, before applying the test compound. If the test compound is an antagonist of somatostatin, then a zone of no growth will appear within the cell growth zone. This zone of no growth is measured and the test compound is given an antagonist rating on a scale of 1-5 wherein 1 is minimum antagonist activity and 5 is maximum antagonist activity.
The results are shown in Table I. When no activity is observed, the result is indicated by a dash.
On day 3, add 5 μL 1 mg/mL S-14 to each plate.
as §2

A further assay deals with SSTR2 (Rattus norvegicus, UniProt P30680). As to the kind of experiment: Competitive binding, displacement of [125I]Tyr11 S-14. To be noted: for Ki: calculated by method of Cheng and Prusoff, read-out: SSTR2 Binding Affinity Ki; for IC50: displacement of [125I]Tyr11 S-14, 250 pM, room temperature, 2 hours, read-out: SSTR2 Binding Affinity IC50. Also on record: expressed in transfected cells; membrane protein. Here is the method: In this evaluation the concentration of test compound required to displace 50% of somatostatin, SRIF, from the SRIF receptor subtypes expressed in mammalian cells is measured, i.e., the concentration required to inhibit 50% of [^125 I] Tyr^11 S-14 (Amersham) (IC50) from binding to the SRIF receptor subtypes.
Radiolabeled SRIF is mixed with pituitary cells, the test compound is added, the mixture is incubated and the radioactivity is measured as compared to control. Reduced radioactivity indicates successful competitive binding of the test compound to the pituitary cell receptor. The concentration of the test compound in nanomolar units required to displace 50% of SRIF from the pituitary cell receptor is calculated and reported in Table II as the IC50 value. Also calculated is the inhibitory constant, Ki.
Tyr^11 S-14 (150,000 cpm at 2000 Ci/mmole, 250 pM final concentration). The binding reaction is initiated by adding 2-60 μg of membrane protein in a 170 μL volume. Final reaction volume is 200 μl/well. All incubations are carried out at room temperature for 2 hours. Free radioligand is separated from bound ligand by rapid filtration through a glass fiber filter (IH-201-HA) using an Inotech cell harvester. The filter is then washed several times with cold (4° C.) binding buffer lacking BSA and protease inhibitors prior to counting in an LKB gamma master counter (78% efficiency). Whatman GFC filters presoaked in 0.3% polyethylenimine (to decrease background) are used.
The IC50 values and Ki values are calculated using the well-known methods described by Y. Cheng and W. H. Prusoff, Biochem. Pharmacol. 22, 3099-3108 (1973), incorporated herein by reference thereto.

Positions of bridges follow the written chain, without caps; N, C: chain ends. Non-standard residues stand in square brackets, D forms with d. Residues, ends and D or L forms follow the SMILES beside them. NMePhe(4-NO2) = CN[C@@H](Cc1ccc([N+](=O)[O-])cc1)C(=O)O; Phe(4-NO2) = N[C@@H](Cc1ccc([N+](=O)[O-])cc1)C(=O)O; 2Nal = N[C@@H](Cc1ccc2ccccc2c1)C(=O)O; d2Nal = N[C@H](Cc1ccc2ccccc2c1)C(=O)O; Orn = NCCC[C@H](N)C(=O)O; Abu = CC[C@H](N)C(=O)O

The Ki is a dissociation constant, usually derived from enzyme kinetics or from competition with a known ligand. What is called IC50 is the point on the concentration scale where inhibition reaches its midpoint.

T1 sequence (P30680 whole entry): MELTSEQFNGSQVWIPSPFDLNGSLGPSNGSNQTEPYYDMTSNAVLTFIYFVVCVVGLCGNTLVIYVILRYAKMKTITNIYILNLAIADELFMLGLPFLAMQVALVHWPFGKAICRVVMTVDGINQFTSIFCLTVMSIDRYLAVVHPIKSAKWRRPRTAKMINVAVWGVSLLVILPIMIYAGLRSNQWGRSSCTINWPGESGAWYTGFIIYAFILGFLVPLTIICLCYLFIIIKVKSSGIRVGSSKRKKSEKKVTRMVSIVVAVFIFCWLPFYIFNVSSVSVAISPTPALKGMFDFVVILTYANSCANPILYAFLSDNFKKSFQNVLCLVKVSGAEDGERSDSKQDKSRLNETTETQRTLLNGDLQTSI
Sequence of SSTR2 (P30680 whole entry): as above

As for `C[C@@H](O)[C@@H]1NC(=O)[C@H](CCCCN)NC(=O)[C@@H](Cc2c[nH]c3ccccc23)NC(=O)[C@H](Cc2ccc(O)cc2)NC(=O)[C@H](NC(=O)[C@@H](N)Cc2ccc([N+](=O)[O-])cc2)CSSC[C@@H](C(=O)N[C@@H](Cc2ccc(O)cc2)C(N)=O)NC1=O` [4-NO2 Phe Tyr Lys Thr Tyr], the “Yeast Assay Agonist” value in assay [1] is on record as “--”. Moreover, in assay [2], the “Yeast Assay Antagonist” value is 5. Also, at SSTR2, the Ki was 1.33 nM and the IC50 was found to be 3 nM.
The like results for `C[C@@H](O)[C@@H]1NC(=O)[C@H](CCCCN)NC(=O)[C@@H](Cc2c[nH]c3ccccc23)NC(=O)[C@H](Cc2ccc(O)cc2)NC(=O)[C@H](NC(=O)[C@@H](N)Cc2ccc([N+](=O)[O-])cc2)CSSC[C@@H](C(=O)N[C@H](Cc2ccc(O)cc2)C(N)=O)NC1=O` [4-NO2 Phe Tyr Lys Thr D-Tyr] were, in that order, “--”, 4, 1.5 nM and 3 nM.
In the case of `CC(=O)N[C@@H](Cc1ccc(I)cc1)C(=O)N[C@@H]1CSSC[C@@H](C(=O)N[C@H](Cc2ccc(O)cc2)C(N)=O)NC(=O)[C@H]([C@@H](C)O)NC(=O)[C@H](CCCCN)NC(=O)[C@@H](Cc2c[nH]c3ccccc23)NC(=O)[C@H](Cc2ccc(O)cc2)NC1=O` [Ac-4-IPhe Tyr Lys Thr D-Tyr], the “Yeast Assay Agonist” value in assay [1] was “--”. Besides, in assay [2], the “Yeast Assay Antagonist” value was determined as 4.
With `CC(C)[C@@H]1NC(=O)[C@H](CCCCN)NC(=O)[C@@H](Cc2c[nH]c3ccccc23)NC(=O)[C@H](Cc2ccc(O)cc2)NC(=O)[C@H](NC(=O)[C@@H](N)Cc2ccc([N+](=O)[O-])cc2)CSSC[C@@H](C(=O)N[C@@H](Cc2ccc3ccccc3c2)C(N)=O)NC1=O` [4-NO2 Phe Tyr Lys Val Nal(2)] (H-[Phe(4-NO2)][dC]Y[dW]KVC[2Nal]-NH2; disulfide 2-7 (inferred); N-terminus and C-terminus assumed), the “Yeast Assay Agonist” value in assay [1] was “--”. For the same molecule, the “Yeast Assay Antagonist” value in assay [2] stood at 2. Also, on SSTR2, the Ki was 3.1 nM and the IC50 turned out to be 7 nM.
Regarding `CC(C)[C@@H]1NC(=O)[C@H](CCCN)NC(=O)[C@@H](Cc2c[nH]c3ccccc23)NC(=O)[C@H](Cc2ccc(O)cc2)NC(=O)[C@H](NC(=O)[C@@H](N)Cc2ccc([N+](=O)[O-])cc2)CSSC[C@@H](C(=O)N[C@@H](Cc2ccc(O)cc2)C(N)=O)NC1=O` [4-NO2 Phe Tyr Orn Val Tyr] (H-[Phe(4-NO2)][dC]Y[dW][Orn]VCY-NH2; disulfide 2-7 (inferred); N-terminus and C-terminus assumed), in assay [1], the “Yeast Assay Agonist” value is given as “--”. In assay [2], the “Yeast Assay Antagonist” value amounted to 1.
In the case of `CC(=O)N[C@@H](Cc1ccc([N+](=O)[O-])cc1)C(=O)N[C@@H]1CSSC[C@@H](C(=O)N[C@H](Cc2ccc(O)cc2)C(N)=O)NC(=O)[C@H]([C@@H](C)O)NC(=O)[C@H](CCCCN)NC(=O)[C@@H](Cc2c[nH]c3ccccc23)NC(=O)[C@H](Cc2ccc(O)cc2)NC1=O` [Ac-4-NO2 Phe Tyr Lys Thr D-Tyr], the “Yeast Assay Agonist” value in assay [1] was “--”. For the same molecule, the “Yeast Assay Antagonist” value in assay [2] was determined as 4. In addition, on SSTR2, the Ki was 0.3 nM and the IC50 was found to be 0.7 nM.
The matching figures for `CC(C)[C@@H]1NC(=O)[C@H](CCCCN)NC(=O)[C@@H](Cc2c[nH]c3ccccc23)NC(=O)[C@H](Cc2ccc(O)cc2)NC(=O)[C@H](NC(=O)[C@H](N)Cc2ccc3ccccc3c2)CSSC[C@@H](C(=O)N[C@@H](Cc2ccc(O)cc2)C(N)=O)NC1=O` [D-Nal(2) Tyr Lys Val Tyr] (H-[d2Nal][dC]Y[dW]KVCY-NH2; disulfide 2-7): “--”, 2, 0.89 nM and 2 nM.
The matching figures for `CC(C)[C@@H]1NC(=O)[C@H](CCCCN)NC(=O)[C@@H](Cc2c[nH]c3ccccc23)NC(=O)[C@H](Cc2ccc(O)cc2)NC(=O)[C@H](NC(=O)[C@@H](N)Cc2ccc([N+](=O)[O-])cc2)CSSC[C@@H](C(=O)N[C@@H](Cc2ccc(O)cc2)C(N)=O)NC1=O` [4-NO2 Phe Tyr Lys Val Tyr] (H-[Phe(4-NO2)][dC]Y[dW]KVCY-NH2; disulfide 2-7 (inferred); N-terminus and C-terminus assumed): “--”, 5, 12.9 nM and 29 nM.
The like results for `CC(C)[C@@H]1NC(=O)[C@H](CCCCN)NC(=O)[C@@H](Cc2c[nH]c3ccccc23)NC(=O)[C@H](Cc2ccc(O)cc2)NC(=O)[C@H](NC(=O)[C@@H](N)Cc2ccc3ccccc3c2)CSSC[C@@H](C(=O)N[C@@H](Cc2ccc(O)cc2)C(N)=O)NC1=O` [L-Nal(2) Tyr Lys Val Tyr] (H-[2Nal][dC]Y[dW]KVCY-NH2; disulfide 2-7) were, in that order, “--”, 3, 2.22 nM and 5 nM.
Take `CC(=O)N[C@@H](Cc1ccc2ccccc2c1)C(=O)N[C@@H]1CSSC[C@@H](C(=O)N[C@@H](Cc2ccc(O)cc2)C(N)=O)NC(=O)[C@H]([C@@H](C)O)NC(=O)[C@H](CCCCN)NC(=O)[C@@H](Cc2c[nH]c3ccccc23)NC(=O)[C@H](Cc2ccc(O)cc2)NC1=O` [Ac-Nal(2) Tyr Lys Thr Tyr] (Ac-[2Nal][dC]Y[dW]KTCY-NH2; disulfide 2-7 (inferred); N-terminus and C-terminus assumed): the “Yeast Assay Agonist” value in assay [1] is “--”. Further, the “Yeast Assay Antagonist” value in assay [2] came out at 1. For the same molecule, at SSTR2, the Ki is 0.48 nM and the IC50 worked out at 1 nM.
The like results for `CN[C@@H](Cc1ccc([N+](=O)[O-])cc1)C(=O)N[C@@H]1CSSC[C@@H](C(=O)N[C@@H](Cc2ccc(O)cc2)C(N)=O)NC(=O)[C@H](C(C)C)NC(=O)[C@H](CCCCN)NC(=O)[C@@H](Cc2c[nH]c3ccccc23)NC(=O)[C@H](Cc2ccc(O)cc2)NC1=O` [NMe-4-NO2 Phe Tyr Lys Val Tyr] (H-[NMePhe(4-NO2)][dC]Y[dW]KVCY-NH2; disulfide 2-7 (inferred); N-terminus and C-terminus assumed) were, in that order, “--”, 5, 2.67 nM and 6 nM.
The like results for `CC[C@@H]1NC(=O)[C@H](CCCCN)NC(=O)[C@@H](Cc2c[nH]c3ccccc23)NC(=O)[C@H](Cc2ccc(O)cc2)NC(=O)[C@H](NC(=O)[C@@H](N)Cc2ccc([N+](=O)[O-])cc2)CSSC[C@@H](C(=O)N[C@@H](Cc2ccc(O)cc2)C(N)=O)NC1=O` [4-NO2 Phe Tyr Lys Abu Tyr] (H-[Phe(4-NO2)][dC]Y[dW]K[Abu]CY-NH2; disulfide 2-7) were, in that order, “--”, 3, 1.78 nM and 4 nM.

The values above are taken from patent publication US5846934A, “Pure somatostatin antagonist and methods of use thereof” (American Cyanamid Company, priority 1997, dated 1998).
